In patent US9012461B2, “FAK inhibitors” (priority 2011, dated 2015):
pIC50: −log10 of the molar value.

Legend:
MDA-231-LNA cells = details: 3 days
[1] = system: taxane-sensitive (SKOV3ip1 and HeyA8) and taxane-resistant (HeyA8-MDR) ovarian cancer cell lines; details: in vitro; cited from earlier work
[2] = system: HeyA8, SKOV3ip1, and HeyA8-MDR models; details: compared with vehicle-treated controls; cited from earlier work
[3] = system: MDA-231-LNA primary tumours; experiment: Combination study, MDA-231-LNA orthotopic xenograft model; assay type: in vivo, Balb/c SCID mice; details: Avastin 12.5 mg/kg i.p. twice weekly; compound 16 (citrate salt) p.o. 54 mg/kg BID

pIC50 (MDA-231-LNA cells)	Molecule	other results
< 5.30	NC(=O)Cc1cccnc1CCc1nc(Nc2ccc(C3CCNCC3)cc2)ncc1C(F)(F)F [Compound 32, 2-(2-(2-(2-((4-(Piperidin-4-yl)phenyl)amino)-5-(trifluoromethyl)pyrimidin-4-yl)ethyl)pyridin-3-yl)acetamide]	
< 5.00	NC(=O)Cc1ccccc1CCc1nc(Nc2ccc(C3CCNC3)cc2)ncc1C(F)(F)F (stereo not drawn) [Compound 35, 2-(2-(2-(2-((4-(pyrrolidin-3-yl)phenyl)amino)-5-(trifluoromethyl)pyrimidin-4-yl)ethyl)phenyl)acetamide]	
< 5.00	CCN1CCC(c2ccc(Nc3ncc(C(F)(F)F)c(CCc4ncccc4CC(N)=O)n3)cc2)CC1 [Compound 38, 2-(2-(2-(2-((4-(1-Ethylpiperidin-4-yl)phenyl)amino)-5-(trifluoromethyl)pyrimidin-4-yl)ethyl)pyridin-3-yl)acetamide]	
	CNC(=O)c1ccccc1Nc1nc(Nc2ccc(N3CCOCC3)cc2OC)ncc1Cl [TAE226]	phosphorylation of FAK [1]: inhibited the phosphorylation of FAK at both Y397 and Y861 sites; reduction of tumour burden [2]: 46-64%
	Avastin	median survival time [3]: 24 days
